We go through eight compounds from ChEMBL document CHEMBL3739381, “Evaluation of the anti-inflammatory/chondroprotective activity of aldose reductase inhibitors in human chondrocyte cultures” (Medchemcomm, 2015).

Calls of active or inactive are those of the source. No cut-off for these calls is given here.

The species entered for data set [1] is Homo sapiens. The data set can be described thus: Anti-inflammatory in human articular chondrocytes assessed as inhibition of IL-1beta-induced nitrite production after 72 hrs by Griess assay. Format: functional, cell-based. Background: Griess reagent forms a coloured azo dye with nitrite.
The target of data set [2] is Stromelysin-1 (Homo sapiens, UniProt P08254). The data set can be described thus: Inhibition of MMP3 (unknown origin) using Pro-Leu-Gly-Leu-Dpa-Ala-Arg-NH2 as substrate after 3 mins by fluorimetric assay.
Chain of Stromelysin-1 (P08254 whole entry): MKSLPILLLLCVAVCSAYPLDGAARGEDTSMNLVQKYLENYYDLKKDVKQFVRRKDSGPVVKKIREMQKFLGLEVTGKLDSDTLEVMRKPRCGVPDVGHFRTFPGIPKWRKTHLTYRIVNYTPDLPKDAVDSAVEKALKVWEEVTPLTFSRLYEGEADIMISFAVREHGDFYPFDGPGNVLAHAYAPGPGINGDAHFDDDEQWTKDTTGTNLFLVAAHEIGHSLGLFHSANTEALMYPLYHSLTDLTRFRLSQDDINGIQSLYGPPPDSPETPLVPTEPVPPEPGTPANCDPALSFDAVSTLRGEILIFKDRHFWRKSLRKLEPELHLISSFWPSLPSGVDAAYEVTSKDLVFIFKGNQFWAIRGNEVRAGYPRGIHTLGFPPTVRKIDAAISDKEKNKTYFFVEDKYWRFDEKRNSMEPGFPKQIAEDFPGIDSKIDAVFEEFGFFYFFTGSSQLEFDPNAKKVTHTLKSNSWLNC
For data set [3], the target named is Collagenase 3 (Homo sapiens, UniProt P45452). The data set can be described thus: Inhibition of MMP13 (unknown origin) using Pro-Leu-Gly-Leu-Dpa-Ala-Arg-NH2 as substrate after 3 mins by fluorimetric assay.
A short description of data set [4]: Cytotoxicity against human articular chondrocytes assessed as cell viability at 2.5 to 10 uM by MTT assay. On the technique in general: Tetrazolium assays rely on reduction of a dye to a coloured formazan, in cell work by metabolically active cells.
For data set [5], the species on record is Homo sapiens. The data set can be described thus: Anti-inflammatory in human articular chondrocytes assessed as inhibition of IL-1beta-induced reduction of GAG level after 72 hrs by spectrophotometry analysis. Format: functional, cell-based.
Data set [6] is filed under the species Homo sapiens. Kind of data set: Anti-inflammatory in human articular chondrocytes assessed as inhibition of IL-1beta-induced ICAM-1 production at 2.5 to 10 uM after 72 hrs by Western blot analysis. Format: functional, cell-based. A general note: A western blot detects proteins with antibodies after separation by electrophoresis.
A short description of data set [7]: Antioxidant activity of the compound in AAPH solution assessed as trolox equivalents for reduction of oxidative degradation by ORAC assay. Format: physicochemical.
For data set [8], the species on record is Homo sapiens. The data set can be described thus: Anti-inflammatory in human articular chondrocytes assessed as inhibition of IL-1beta-induced NFkappa-B p65 production at 2.5 to 10 uM after 72 hrs by Western blot analysis. Format: functional, cell-based.

Turning to `O=C(O)CN1C(=O)/C(=C/c2cccc(OCc3ccccc3)c2)SC1=S`, the inhibition result in data set [1] and in data set [5] was “Dose-dependent effect” in each case. Besides, the IC50 in data set [2] (read-out: IC50) was determined as 4.19 µM; in data set [3], 1.59 µM. The Activity result was “Non-toxic” in data set [4] and 0.65 µM in data set [7]. For the same compound, the inhibition entry in data set [6] and in data set [8] was “Active” in each case.

On to `O=C1NC(=S)S/C1=C\c1ccc(Oc2ccccc2)cc1`, for which the inhibition entry in data set [1] and in data set [5] was “Dose-dependent effect” in each case. Moreover, the IC50 in data set [2] (read-out: IC50) was found to be 48.4 µM; in data set [3], 3.99 µM. In addition, the Activity result in data set [4] is “Non-toxic”; in data set [7], 0.52 µM. Also, the inhibition entry in data set [6] and in data set [8] was “Active” throughout.

On to `O=C(O)CN1C(=O)/C(=C/c2cccc(Oc3ccccc3)c2)SC1=S`, for which the inhibition result in data set [1] and in data set [5] was “Dose-dependent effect” throughout. The IC50 in data set [2] (read-out: IC50) is 14.2 µM; in data set [3], 4.7 µM. In addition, the Activity result is “Non-toxic” in data set [4] and 0.61 µM in data set [7]. The inhibition result in data set [6] and in data set [8] was “Active” in each case.

`O=C1NC(=S)S/C1=C\c1cccc(OCc2ccccc2)c1`: the inhibition entry in data set [1] and in data set [5] was “Dose-dependent effect” each time. In addition, the concentration for half-maximal inhibition (IC50) result in data set [2] is “Not Active”; in data set [3] it was 5.89 µM. In addition, the values for the Activity result in data set [4] and in data set [7] were “Non-toxic” and 0.63 µM, respectively. Besides, the inhibition entry in data set [6] and in data set [8] was “Active” in each case.

As for `O=C1NC(=S)S/C1=C\c1cccc(Oc2ccccc2)c1`, the inhibition result in data set [1] and in data set [5] was “Dose-dependent effect” each time. Further, the IC50 in data set [2] (read-out: IC50) came to 17.5 µM; in data set [3] it was 55.3 µM. In addition, the Activity entry in data set [4] was “Non-toxic”; in data set [7] it was 0.39 µM. Moreover, the inhibition entry in data set [6] and in data set [8] was “Active” each time.

On to `O=C1NC(=S)S/C1=C\c1ccc(OCc2ccccc2)cc1`, for which the inhibition entry in data set [1] and in data set [5] was “Dose-dependent effect” throughout. In addition, the figures for the IC50 in data set [2] (read-out: IC50) and in data set [3] were 77.4 µM and 0.64 µM, respectively. The Activity entry was “Non-toxic” in data set [4] and 0.6 µM in data set [7]. Also, the inhibition entry in data set [6] and in data set [8] was “Active” in each case.

Regarding `O=C(O)CN1C(=O)/C(=C/c2ccc(Oc3ccccc3)cc2)SC1=S`, the inhibition result in data set [1] and in data set [5] was “Dose-dependent effect” throughout. The figures for the IC50 in data set [2] (read-out: IC50) and in data set [3] were 8.96 µM and 3.8 µM, respectively. Further, the Activity entry is “Non-toxic” in data set [4] and 0.76 µM in data set [7]. The inhibition result in data set [6] and in data set [8] was “Active” throughout.

In the case of `O=C(O)CN1C(=O)/C(=C/c2ccc(OCc3ccccc3)cc2)SC1=S`, the inhibition result in data set [1] and in data set [5] was “Dose-dependent effect” each time. In addition, the results for the IC50 in data set [2] (read-out: IC50) and in data set [3] were 58.5 µM and 6.97 µM, respectively. Moreover, the results for the Activity result in data set [4] and in data set [7] were “Non-toxic” and 1.078 µM, respectively. Further, the inhibition entry in data set [6] and in data set [8] was “Active” throughout.

By IC50 is commonly meant the point on the concentration scale where inhibition reaches its midpoint.
